Measurements taken from patent US20070190060A1, “Passive targeting of cytotoxic agents” (Wyeth, priority 2004, published 2007).
Several values for one entry are separate records, joined by “and”; a condition that tells them apart may be missing. Equal values may be shown once.

How the values were obtained:
[1] = tested on: A431 epidermoid carcinoma xenografts; assay: Tumor growth inhibition, subcutaneous A431 xenografts; assay type: in vivo, athymic nude mice; settings: for average tumor size as % of the control tumors: intravenous, twenty-seven days following onset of therapy
Experimental: (§1) Subcutaneous tumors of N87, LOVO, A431/Le^y, LS174T and L2987 were grown in athymic nude mice (Charles River, Wilmington, Mass.). Two-month-old female mice were injected with respectively 5×10^6 N87, LOVO, A431/Le^y or LS174T cells per mouse. L2987 cells were injected in male nude mice that were between 7 and 8 weeks old. To grow tumors, N87 cells had to be mixed (1:1, vol/vol) with […]® (Collaborative Biomedical Products, Belford, Mass.) prior to injection. Two perpendicular diameters of the tumor were measured by means of calipers at time intervals specified in the result section. The tumor volume was calculated according to the formula of Attia&Weiss: A^2×B×0.4. A and B are symbols for the smaller and the larger tumor diameter, respectively.
[…] Mice with xenografts of approximately 80 mm^3 were selected prior to treatment. The amounts of CalichDMH or conjugate given are expressed in calicheamicn equivalents.
Both T and C are determined at the same day following initiation of treatment.

PC14PE6 xenografts = assay: Tumor growth inhibition, subcutaneous PC14PE6 xenografts; assay type: in vivo, athymic nude mice
PC3MM2 xenografts = assay: Tumor growth inhibition, subcutaneous PC3MM2 xenografts; assay type: in vivo, athymic nude mice; settings: 4.00 μg per dose, Q4D×3, 29 days after first dose
KB 8.5 xenografts = assay: Tumor growth inhibition, subcutaneous KB 8.5 xenografts; assay type: in vivo, athymic nude mice; settings: 4.00 μg per dose, Q4D×3, 22 days after first dose
N87 xenografts = assay: Tumor growth inhibition, subcutaneous N87 xenografts; assay type: in vivo, athymic nude mice
Experimental: as §1, with “respectively. The treatment schedules, dose and number of mice per group are specified in the result section and in the figure legends.” for “respectively.”
(§2) As shown in Table 2 (tumor volume reduction of CD33-tumor xenografts following treatment (T) with hp67.6-AcBut-CalichDMH and expressed as a percentage of controls treated with vehicle (T/C %)), hp67.6-AcBut-CalichDMH inhibited tumor growth of human tumor xenografts with diverse histiotypic origin. […] This value is the average tumor volume of a group of mice that were treated with hp67.6-AcBut-CalichDMH (T) expressed as a percentage of the average tumor volume of a control group (C). Both T and C are determined at the same day following initiation of treatment. The T/C-values in table II were derived from 27 independent experiments and were determined between 17 and 34 days after injection of the first dose of hp67.6-AcBut-CalichDMH. […] Significant inhibition was also observed when lower amounts of the conjugate were administered.

A431/Le^Y xenografts = assay: Tumor growth inhibition, subcutaneous A431/LeY xenografts; assay type: in vivo, athymic nude mice
Experimental: as §1, with “respectively. […]” for “respectively.”
As shown in Table 2 (tumor volume reduction of CD33-tumor xenografts following treatment (T) with hp67.6-AcBut-CalichDMH and expressed as a percentage of controls treated with vehicle (T/C %)), hp67.6-AcBut-CalichDMH inhibited tumor growth of human tumor xenografts with diverse histiotypic origin. […] This value is the average tumor volume of a group of mice that were treated with hp67.6-AcBut-CalichDMH (T) expressed as a percentage of the average tumor volume of a control group (C). Both T and C are determined at the same day following initiation of treatment. […]

HT29 xenografts = assay: Tumor growth inhibition, subcutaneous HT29 xenografts; assay type: in vivo, athymic nude mice; settings: 4.00 μg per dose, Q4D×3, 33 days after first dose
LOVO xenografts = assay: Tumor growth inhibition, subcutaneous LOVO xenografts; assay type: in vivo, athymic nude mice; settings: for T/C (%): LOVO, 4.00 μg per dose, Q4D×3
Experimental: as §1, with “respectively. The treatment schedules, dose and number of mice per group are specified in the result section and in the figure legends.” for “respectively.”
as §2

[2] = In vivo distribution of 125I-labeled conjugate in A431 tumor-bearing mice; parameters: species or system female nude mice
Experimental: Gemtuzumab ozogamicin was labeled with ^125I using the Bolton-Hunter reagent (NEN, Boston, Mass.). A group of 30 tumor-bearing female nude mice were injected in the lateral tail vein with ^125I-labeled conjugate 20 μCi/[…]. The tumor weight at the time of injection was approximately 1 g. Groups of 5 mice were killed by CO2 inhalation at 2, 6, 24, 48, 72 and 96 h following the injection. The amount of γ radiation in the tissues as specified in FIG. 2 was determined at these time points. Biodistribution of the conjugate was expressed as a percentage of the injected dose per gram tissue (% ID/g) or as a percentage of the blood level at a given time point (% Blood). Steadily increasing concentrations of hp67.6-AcBut-CalichDMH were exclusively observed in tumor tissue. The doubling time of accumulation is 150 h for A431 tumors.
The kinetics of hp67.6-AcBut-CalichDMH in various mouse tissues and in CD33-negative A431-tumor xenografted tumor were compared. Following injection of 200 µg (20 μCi) ^125I labeled conjugate, the amount of radioactive label was measured in various tissues at 2, 6, 24, 48, 72 and 96 h (FIG. 2). The amount of radioactive material was expressed relative to the amount present in whole blood at the time of measurement (% Blood, Y1 axes in FIG. 2). Percent blood (% Blood) is given by the formula, 100×Bq per gram tissue/Bq per gram blood. In addition, the amount of radioactive material was also expressed relative to total amount of conjugate given (% ID/g, Y2 axes in FIG. 2). Only a marginal amount of 125I labeled conjugate is retained in the brain. […] The % Blood was on average 3.5%.

LNCaP xenografts = assay: Tumor growth inhibition, subcutaneous LNCaP xenografts; assay type: in vivo, athymic nude mice
MDAMB435/5T4 xenografts = assay: Tumor growth inhibition, subcutaneous MDAMB435/5T4 xenografts; assay type: in vivo, athymic nude mice
L2987 xenografts = assay: Tumor growth inhibition, subcutaneous L2987 xenografts; assay type: in vivo, athymic nude mice
Experimental: as §1, with “respectively. The treatment schedules, dose and number of mice per group are specified in the result section and in the figure legends.” for “respectively.”
as §2

[3] = intraperitoneally Q4D×3, equivalent or higher doses than hp67.6-AcBut-CalichDMH (FIGS. 1B and 1C)
[4] = intravenous administration, same dose, frequency and interval (Q4D×3)
[5] = 2.00 μg per dose, 29 days after first dose
[6] = 4.00 μg per dose, Q4D×3, 29 days after first dose
[7] = 1.00 μg per dose, 28 days after first dose
[8] = 2.00 μg per dose, 28 days after first dose
[9] = 2.00 μg per dose, 30 days after first dose
[10] = 4.00 μg per dose, Q4D×3, 28 days after first dose
[11] = 4.00 μg per dose, Q4D×3, 30 days after first dose

## CCN(C(C)=O)[C@H]1CO[C@@H](O[C@H]2[C@H](O[C@H]3C#C/C=C\C#C[C@]4(O)CC(=O)C(NC(=O)OC)=C3/C4=C\CSSC(C)(C)CC(=O)NN)O[C@H](C)[C@@H](NO[C@H]3C[C@H](O)[C@H](SC(=O)c4c(C)c(I)c(O[C@@H]5O[C@@H](C)[C@H](O)[C@@H](OC)[C@H]5O)c(OC)c4OC)[C@@H](C)O3)[C@@H]2O)C[C@@H]1OC [CalichDMH, N-acetyl-γ-calicheamicin dimethyl hydrazide]
[1]; [3]
  tumor growth inhibition of A431 xenografts: did not inhibit tumor growth
[1]; [4]
  tumor growth inhibition of A431 xenografts: did not yield significant tumor growth inhibition

## hp67.6-AcBut-CalichDMH: antibody against CD33 (hp67.6) bound to N-acetyl gamma calicheamicin dimethyl hydrazide by the acid labile AcBut linker
PC14PE6 xenografts; 1.00 μg per dose, 29 days after first dose
  T/C (%): 52%
PC14PE6 xenografts; 2.00 μg per dose, 17 days after first dose
  T/C (%): 59%
PC14PE6 xenografts; [5]
  T/C (%): 42%
PC14PE6 xenografts; 4.00 μg per dose, Q4D×3, 17 days after first dose
  T/C (%): 27%
PC14PE6 xenografts; 4.00 μg per dose, Q4D×3, 22 days after first dose
  T/C (%): 15%
PC14PE6 xenografts; [6]
  T/C (%): 14%
PC3MM2 xenografts
  T/C (%): 33%
KB 8.5 xenografts
  T/C (%): 27%
[1]; 3 doses of 4 μg, intraperitoneally Q4D×3, up to 27 days following treatment
  growth of A431 xenografts: significantly (p=0.03) inhibited
[1]; A431, 1.00 μg per dose, 27 days after first dose
  T/C (%): 146%
[1]; A431, 2.00 μg per dose, 27 days after first dose
  T/C (%): 72%
[1]; A431, 2 μg/dose, intraperitoneally Q4D×3 (FIG. 1A)
  time xenografts remained significantly (p=0.004) smaller than the controls: 21 days
[1]; A431, 4.00 μg per dose, Q4D×3, 27 days after first dose
  T/C (%): 21% and 35%
[1]; A431, 4.00 μg per dose, Q4D×3, 28 days after first dose
  T/C (%): 12%
[1]; A431, 2 μg Q4D×3
  average tumor size as % of the control tumors: 23%
[1]; A431, 4 μg Q4D×3
  average tumor size as % of the control tumors: 11%
[1]; [4]
  tumor growth inhibition of A431 xenografts: Significant growth inhibition
N87 xenografts; [7]
  T/C (%): 55%
N87 xenografts; [8]
  T/C (%): 41%
N87 xenografts; [9]
  T/C (%): 54%
N87 xenografts; 4.00 μg per dose, Q4D×3, 27 days after first dose
  T/C (%): 19%
N87 xenografts; [10]
  T/C (%): 60%
N87 xenografts; [11]
  T/C (%): 48%
N87 xenografts; 4.00 μg per dose, Q4D×3, 31 days after first dose
  T/C (%): 39%
N87 xenografts; 4.00 μg per dose, Q4D×3, 33 days after first dose
  T/C (%): 39% and 42%
A431/Le^Y xenografts; [5]
  T/C (%): 37%
A431/Le^Y xenografts; [6]
  T/C (%): <1%
HT29 xenografts
  T/C (%): 36%
LOVO xenografts; LOVO colon carcinoma, 4 μg CalichDMH per mouse, intraperitoneally Q4D×3 (FIG. 5)
  T/Cmin value (minimum T/C-value observed during an experiment): exceptionally high
LOVO xenografts; 25 days after first dose
  T/C (%): 80%
LOVO xenografts; 29 days after first dose
  T/C (%): 47% and 76%
[2]; A431 tumor tissue, 2 to 96 h
  % ID/g value in function of time, tumor tissue: steady increase
[2]; A431 tumors, 125I-labeled conjugate, lateral tail vein
  doubling time of accumulation in tumor: 150 h
[2]; brain, within 96 hours, 125I-labeled conjugate
  % Blood (100×Bq per gram tissue/Bq per gram blood), brain, on average: 3.5%
[2]; heart, intestine and spleen, after injection, then steadily decreased
  time of highest % Blood-value: 2 h
[2]; liver and striated muscle
  time of peak of the % Blood-value: 48 h
[2]; normal tissues, 2 to 96 h
  % ID/g in function of time, all the other tissues examined: decreased in function of time
[2]; skin
  time after which % Blood-value reached a plateau: 24 h
LNCaP xenografts; 0.50 μg per dose, 28 days after first dose
  T/C (%): 102%
LNCaP xenografts; [7]
  T/C (%): 59%
LNCaP xenografts; [8]
  T/C (%): 30%
LNCaP xenografts; [5]
  T/C (%): 34%
LNCaP xenografts; [10]
  T/C (%): 24%
LNCaP xenografts; [6]
  T/C (%): 7%
MDAMB435/5T4 xenografts; [5]
  T/C (%): 45%
MDAMB435/5T4 xenografts; [6]
  T/C (%): 32%
MDAMB435/5T4 xenografts; 4.00 μg per dose, Q4D×3, 34 days after first dose
  T/C (%): 30%
L2987 xenografts; 0.75 μg per dose, 21 days after first dose
  T/C (%): 33%
L2987 xenografts; 1.50 μg per dose, 21 days after first dose
  T/C (%): 77%
L2987 xenografts; [9]
  T/C (%): 5%
L2987 xenografts; 3.00 μg per dose, 21 days after first dose
  T/C (%): 5%
L2987 xenografts; [11]
  T/C (%): 1%
L2987 xenografts; 4.00 μg per dose, Q4D×3, 35 days after first dose
  T/C (%): 1%

## hp67.6-Amide-CalichDMA: hp67.6 linked to CalichDMA with the acid stabile Amide (4-mercapto-4-methyl-pentanoic acid) linker
[1]; [3]
  tumor growth inhibition of A431 xenografts: did not inhibit tumor growth
[1]; [4]
  tumor growth inhibition of A431 xenografts: did not yield significant tumor growth inhibition
